We go through 14 substances from patent publication US7279548B2, “Identification and isolation of novel polypeptides having WW domains and methods of using same” (Cytogen Corporation, priority 1996, dated 2007).

Test [1] deals with WW domains of WWP1 expressed as GST fusion proteins. Kind of test: ELISA based cross affinity mapping, WW domains of WWP1. Type of test: binding, human. The note with it: biotinylated peptide-streptavidin/alkaline phosphatase complex; GST fusion proteins; ELISA. On the procedure: (§1) The 16 day mouse embryo cDNA expression library was diluted 1:1000 in SM solution (100 mM NaCl, 8 mM MgSOv4, 50 mM Tris HCl pH 7.5, 0.01% gelatin). To a sterile test tube, 2 μl of diluted mouse embryo library, 100 μl of 10 mM CaCl2, 100 μl of 10 mM MgCl2 and 100 μl of BL21(DE3)pLysE bacterial cells (grown overnight) were added and incubated for 30 minutes at 37° C. The contents of the tube were mixed with 3 ml of 0.6% top agarose, containing […] chloramphenicol, and poured onto a 2xYT plate (90 mm diameter). For a large primary screen, 10–20 plates were prepared with 3×10^4 pfu per plate. After 6 hours incubation at 37° C., a nitrocellulose filter soaked in 10 mM isopropyl-β-D-thiogalactopyranoside (IPTG) was overlaid on each plate and incubated 3–6 hours at 37° C. Before the filters were removed from the plates, they were marked asymmetrically with India ink in a 18 gauge syringe needle. The plates were stored at 4° C. until ready for the secondary screen. The filters were washed with PBS (137 mM NaCl, 2.7 mM KCl, 4.3 mM Na2HPO4, 1.4 mM KH2PO4)-0.05% Triton X-100 three times at room temperature, 15 minutes each wash, and then placed in a plastic bag containing non-specific blocking solution (PBS-2% BSA) for one hour. In the meantime, 1 ml of 1 mM biotinylated peptide in PBS-0.1% Tween 20 was added to 20 ml of 1 mg/ml streptavidin-alkaline phosphatase (SA-AP) in PBS-0.1% Tween 20 and incubated at 4° C. for 30 minutes. […] Excess biotin-binding sites would then be blocked by addition of 500 pmol biotin. […] Ten μl of 0.1 mM biotin would then be added, and the solution incubated for an additional 15 min.
(§2) To determine the ligand preferences of the novel WW omain-containing clones described in Sections 6.1 and 6.1.1, as well as addressing the issue of whether peptides containing PPPPY (SEQ ID NO:3)-like motifs derived from a variety of proteins could also serve as recognition units and bind to these clones, a cross affinity mapping experiment was performed (FIGS. 15A–D). The peptides shown in FIGS. 15A–D were synthesized, biotinylated, complexed with streptavidin-alkaline phosphatase, and tested in an ELISA based assay for their ability to bind to the twelve individual novel WW domains of WWP1, WWP2, WWP3 and WWP4 which were expressed as GST fusion proteins. The ELISA based cross-affinity experiments were performed essentially as described by Sparks et al. (1996, Proc. Natl. Acad. Sci. 93:1540–1544) with the following modifications. Briefly, microtiter wells were coated with 1–5 μg of fusion protein in 100 mM NaHCO3, blocked with SuperBlock TBS (Pierce) and washed four times with PBS, 0.05% Tween 20. Specific peptide-streptavidin/alkaline phosphatase complexes were added as above and unbound complexes washed five times with PBS, 0.05% Tween 20. Following addition of PNP substrate (p-nitrophenyl phosphate, Kirkegard & Perry Labs), peptide binding was quantitated after 30 min. at O.D. 405 nm. Relative binding measurements from three independent determinations were assigned to a scale as follows: O.D. units 0–0.5=(−), 0.5–1.0=(+), 1.0–2.0=(++), 2.0–3.0=(+++), >3.0=(++++). Peptide binding to human Fyn and Lyn SH3 and SH2 domains was assessed by a filter binding assay (see Section 6.1 and Sparks et al., 1996, Proc. Natl. Acad. Sci 93:1540–1544). Peptide sequences used in cross-affinity experiments correspond to segments of the following genes: RasGap (Database accession # P20936), AP-2 (P05549), p53BP-2 (U09582), IL-6Rα (P22272), voltage-gated chloride channel CLCN5 (X91906), IL-2Rγ (D111086), RSV (D10652), HTLV-1 (D13784), β-dystroglycan (L19711), Formin (X53599), amiloride-sensitive epithelial Na^+ channel ENaCα (P37089), ENaCβ (X87159) and ENaCγ (X87160), muscarinic acetylcholine receptor M4 AChR (P08173), and c-Abl (P00522). Src and Crk SH3 binding peptide sequences were derived from a phage display random peptide library screen (Section 6.1 and Sparks et al., 1996, Proc. Natl. Acad. Sci. 93:1540–1544).
(In an ELISA, binding on a coated surface is turned into a signal by an enzyme label.)

Test [2] concerns WW domains of WWP2 expressed as GST fusion proteins. Kind of test: ELISA based cross affinity mapping, WW domains of WWP2. It is filed as binding, human. The note with it: biotinylated peptide-streptavidin/alkaline phosphatase complex; GST fusion proteins; ELISA. On the procedure:
as §1, §2

For test [3], the system named is WW domains of WWP4 expressed as GST fusion proteins. Kind of test: ELISA based cross affinity mapping, WW domains of WWP4. The conditions noted are these: biotinylated peptide-streptavidin/alkaline phosphatase complex; GST fusion proteins; ELISA. It is filed as binding, human. On the procedure:
as §1, §2

Test [4] deals with T1, WWP3 WW domain expressed as GST fusion protein (Homo sapiens, UniProt Q96QZ7).
T1 construct: made in house
Kind of test: ELISA based cross affinity mapping, WWP3 WW domain. Type of test: binding. The note with it: biotinylated peptide-streptavidin/alkaline phosphatase complex. As for the experimental part: The 16 day mouse embryo cDNA expression library was diluted 1:1000 in SM solution (100 mM NaCl, 8 mM MgSOv4, 50 mM Tris HCl pH 7.5, 0.01% gelatin). To a sterile test tube, 2 μl of diluted mouse embryo library, 100 μl of 10 mM CaCl2, 100 μl of 10 mM MgCl2 and 100 μl of BL21(DE3)pLysE bacterial cells (grown overnight) were added and incubated for 30 minutes at 37° C. The contents of the tube were mixed with 3 ml of 0.6% top agarose, containing […] chloramphenicol, and poured onto a 2xYT plate (90 mm diameter). For a large primary screen, 10–20 plates were prepared with 3×10^4 pfu per plate. After 6 hours incubation at 37° C., a nitrocellulose filter soaked in 10 mM isopropyl-β-D-thiogalactopyranoside (IPTG) was overlaid on each plate and incubated 3–6 hours at 37° C. Before the filters were removed from the plates, they were marked asymmetrically with India ink in a 18 gauge syringe needle. The plates were stored at 4° C. until ready for the secondary screen. The filters were washed with PBS (137 mM NaCl, 2.7 mM KCl, 4.3 mM Na2HPO4, 1.4 mM KH2PO4)-0.05% Triton X-100 three times at room temperature, 15 minutes each wash, and then placed in a plastic bag containing non-specific blocking solution (PBS-2% BSA) for one hour. In the meantime, 1 ml of 1 mM biotinylated peptide in PBS-0.1% Tween 20 was added to 20 ml of 1 mg/ml streptavidin-alkaline phosphatase (SA-AP) in PBS-0.1% Tween 20 and incubated at 4° C. for 30 minutes. As an alternative method of forming multivalent complexes, 50 pmol biotinylated peptide could have been incubated with 2 μg SA-AP (for a biotin:biotin-binding site ratio of 1:1). Excess biotin-binding sites would then be blocked by addition of 500 pmol biotin. As a further alternative, 31.2 μl of 1 mg/ml SA-AP could have been incubated with 15 μl of 0.1 mM biotinylated peptide for 30 min at 4° C. Ten μl of 0.1 mM biotin would then be added, and the solution incubated for an additional 15 min.
as §2, with “Peptide sequences used in cross-affinity experiments correspond to segments of the following genes: RasGap (Database accession # P20936), AP-2 (P05549), p53BP-2 (U09582), IL-6Rα (P22272), voltage-gated chloride channel CLCN5 (X91906), IL-2Rγ (D111086), RSV (D10652), HTLV-1 (D13784), β-dystroglycan (L19711), Formin (X53599), amiloride-sensitive epithelial Na^+ channel ENaCα (P37089), ENaCβ (X87159) and ENaCγ (X87160), muscarinic acetylcholine receptor M4 AChR (P08173), and c-Abl (P00522). Src and Crk SH3 binding peptide sequences were derived from a phage display random peptide library screen (Section 6.1 and Sparks et al., 1996, Proc. Natl. Acad. Sci. 93:1540–1544).” left out

Test [5] has as its system twelve individual novel WW domains of WWP1, WWP2, WWP3 and WWP4. Nature of the test: ELISA based cross affinity mapping, whole panel of novel WW domains. It is filed as binding, human. The note with it: biotinylated peptide-streptavidin/alkaline phosphatase complex, GST fusion proteins. As for the experimental part:
as §1, §2

T1 sequence (Q96QZ7 300-337 limits assumed): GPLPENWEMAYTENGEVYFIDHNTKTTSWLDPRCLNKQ

On to “bWW062: alanine substitution variant of the tyrosine residue of the PPPPY-like domain of WWP2 (NRLDLPPAKSYEQ)”, for which, in test [1], the “binding to WW domains of WWP1” value was “abolished binding activity”. Moreover, the “binding to WW domains of WWP2” value in test [2] is given as “abolished binding activity”. Also, in test [3], the “binding to WW domains of WWP4” value is listed as “abolished binding activity”.

On to “WBP-2A-Pro4: WBP-2A peptide with substitution of the third proline residue (SGSGYVQPPPAPYPGPM)”, for which the “binding to WW domains of WWP1” value in test [1] is on record as “absolutely essential for binding”. Also, the “binding to WW domains of WWP2” value in test [2] is “absolutely essential for binding”. Further, in test [4], the “binding to WWP3 WW domain” value is reported as “absolutely essential for binding”. The “binding to WW domains of WWP4” value in test [3] is on record as “absolutely essential for binding”.

Turning to biotin - PGTPPPNYDSLRL [ENaCβ], the “binding to WW domains of WWP1” value in test [1] is on record as “positive interaction”. Also, in test [2], the “binding to WW domains of WWP2” value is recorded as “positive interaction”. Besides, the “binding to WWP3 WW domain” value in test [4] is “positive interaction”. In test [3], the “binding to WW domains of WWP4” value is “positive interaction”.

Consider “RasGap: peptide with PPPPY-like motif from a segment of RasGap (P20936) (PLPPPPYLPP)”, for which the “binding to the novel WW domains (WWP1, WWP2, WWP3, WWP4 panel)” value (from here on “binding to the novel WW domains”) in test [5] is given as “bound to WW domains from one or more of the four novel clones”.

Regarding “ENaCβ-P616L: mutant ENaCβ peptide, Liddle syndrome missense substitution, PPPNY to PPLNY (PGTPPLNYDSLRL)”, the “binding to WW domains of WWP1” value in test [1] is “do not bind”. Moreover, the “binding to WW domains of WWP2” value in test [2] is listed as “do not bind”. Also, the “binding to WW domains of WWP4” value in test [3] is recorded as “do not bind”.

Regarding “WBP-2A-Pro3: WBP-2A peptide with substitution of the second proline (SGSGYVQPPAPPYPGPM)”, the “binding to WW domains of WWP2” value in test [2] is given as “is not”. Also, the “binding to WW domains of WWP4” value in test [3] is on record as “is not”.

In the case of “AP-2: peptide with PPPPY-like motif from AP-2 transcription factor (P05549) (PYFPPPYQPI)”, in test [5], the “binding to the novel WW domains” value was “bound to WW domains from one or more of the four novel clones”.

Take “p53BP-2: peptide with PPPPY-like motif from p53 binding protein-2 (U09582) (YPPYPPPPYPSG)”: in test [5], the “binding to the novel WW domains” value is “bound to WW domains from one or more of the four novel clones”.

As for “ENaCβ-Y618H: mutant ENaCβ peptide, Liddle syndrome missense substitution, PPPNY to PPPNH (PGTPPPNHDSLRL)”, in test [1], the “binding to WW domains of WWP1” value is given as “do not bind”. The “binding to WW domains of WWP2” value in test [2] is given as “do not bind”. Further, the “binding to WW domains of WWP4” value in test [3] is given as “do not bind”.

As to “IL-2R: peptide from interleukin receptor IL-2R (YWAPPCYTLK)”, the “binding to the novel WW domains” value in test [5] is given as “bound to WW domains from one or more of the four novel clones”.

Consider “bWW060: alanine substitution variant of the tyrosine residue of the PPPPY-like domain of WWP4 (NRLDLPPAETFED)”, for which the “binding to WW domains of WWP1” value in test [1] was “abolished binding activity”. Besides, the “binding to WW domains of WWP2” value in test [2] is given as “abolished binding activity”. For the same substance, the “binding to WW domains of WWP4” value in test [3] was “abolished binding activity”.

For “IL-6R: peptide from interleukin receptor IL-6R (TTSPPPPPYS)”, the “binding to the novel WW domains” value in test [5] was “bound to WW domains from one or more of the four novel clones”.

Regarding “β dystroglycan-2: second peptide from dystrophin interacting molecule β-dystroglycan (YRSPPPYVPP)”, the “binding to the novel WW domains” value in test [5] is given as “bound to WW domains from one or more of the four novel clones”.

For the substance “β-dystroglycan-1: peptide from dystrophin interacting molecule β-dystroglycan (L19711) (PLPPPEYPNQ)”, in test [5], the “binding to the novel WW domains” value is recorded as “bound to WW domains from one or more of the four novel clones”.
